How the values were obtained:
tumor = experiment: Combination with bleomycin: tumor growth and life span; conditions: in vivo
Source text: As for interferons, interleucins and other known immunomoludatory materials, the efficacy of the pharmaceutical preparations of the present invention is restricted by the basic capacity of the immune system to recognize and attack cancer cells. However, the efficacy may be enhanced when the pharmaceutical preparations are combined with other antitumor drugs.

[1] = system: human and mouse lymphocytes; experiment: Active principle: stimulation of lymphocytes' cytotoxic anticancer activity in vitro; format: cell-based; conditions: comparative analysis of minimum active concentrations

| Molecule | Effect on tumor growth and life span (tumor) | Concentration to enhance cancer cell destruction relative to the effective concentration of the active principle [1] |
| --- | --- | --- |
| bleomycin | much less effective |  |
| NK-lysin (protein, UniProt P22749 23-145, looked up, Human cytolitic peptide which directly kills the target cells) Granulysin: RLSPEYYDLARAHLRDEEKSCPCLAQEGPQGDLLTKTQELGRDYRTCLTIVQKLKKMVDKPTQRSVSNAATRVCRTGRSRWRDVCRNFMRRYQSRVTQGLVAGETAQQICEDLRLCIPSTGPL |  | more than a million times |

From patent US6337093B1 (priority 1998, dated 2002)
